Read-outs that look alike come from different tables or passages of the source.
Test: Phase 1 pharmacokinetic study of a single oral dose of 20 mg E4 monohydrate in female subjects with normal hepatic function and mild, moderate or severe hepatic impairment (plasma, LC-MS/MS, non-compartmental analysis)
Format: in vivo, human
Conditions: for AUC0-24 h, GM / CL/F, GM / CL/F, Mean / CL/F, Median / Cmax, Mean / λz, GM / λz, Mean / λz, Median / Tmax / AUC(0-inf) / Cmax / AUC(0-t) / half-life / Vd/F: plasma; for Tmax / AUC(0-inf) / Cmax / AUC(0-t) / half-life / Vd/F: female, human, 20 mg
Procedure: This was a Phase 1, multi-centre, open-label, PK, and safety study of a single oral dose of 20 mg E4 monohydrate in female subjects with normal hepatic function (Group 1), mild hepatic impairment (Group 2), moderate hepatic impairment (Group 3), and severe hepatic impairment (Group 4), as defined using the Child-Pugh classification at Screening.
The study consisted of an eligibility Screening period (within 28 days prior to study drug administration), an Assessment Period with in-house period and outpatient visits (including a single oral dose of 20 mg E4 on Day 1), and a follow up visit. All subjects were confined to the study site from Day-1 (the day before dosing) until Day 4 and returned to the site every day from Day 5 to Day 9. Alternatively, the subjects could stay for a prolonged in-house period in agreement with the Investigator. The follow-up visit occurred on Day 14 (+2 days).
All subjects arrived at the study site in the morning of Day-1 in a fasted state (no food for at least 8 h, water was allowed) to have the scheduled assessments performed in order to confirm eligibility as outlined in the inclusion and exclusion criteria (Section 2.3.1 and Section 2.3.2, respectively). In the morning of Day 1 following an overnight fast, the subjects received oral dosing of 20 mg E4 monohydrate and remained at the site. Study-related assessments were performed at time points indicated in the Schedule of Assessments in Table 2.
Serial blood sampling for PK assessments started on Day 1 and proceeded until Day 9 according to the Pharmacokinetic Sampling Schedule presented in Table 3.
Each enrolled subject was to receive a single oral dose of 20 mg of E4 (estetrol) as monohydrate as a film-coated tablet.
Study drug was administered to subjects in the morning after an overnight fast of at least 8 h.
Calculation of non-compartmental PK parameters were done using WinNonlin™ Professional, Version 6.3 or higher.
The primary PK parameters to be analyzed for E4 in plasma: • Cmax=maximum observed plasma concentration • AUCinf=area under the concentration-time curve (AUC) from time zero extrapolated to infinity
The analysis of E4 and the metabolites E4-3-glucuronide and E4-16-glucuronide in plasma samples were performed at the Bioanalytical Laboratory of the CRO using a validated liquid chromatography-mass spectrometry/mass spectrometry method.
Individual and mean plasma concentrations at each sampling time point for E4 are presented by listings and descriptive summary statistics including means, geometric means (GMs), medians, ranges, standard deviations (SD) and coefficients of variation (CV). Individual, mean and/or median concentrations per hepatic function group were plotted versus time on semilogarithmic scales.
PK parameters were calculated by non-compartmental analysis. PK parameters were analysed using descriptive statistics and are presented by hepatic function group.
Analysis of variance (ANOVA) were used to compare primary PK parameters of E4 (Cmax and AUCinf) between subjects with hepatic impairment and subjects with normal hepatic function in an exploratory approach, using the log-transformed value of each PK parameter as dependent variable, and the hepatic impairment group (normal, mild, moderate, and severe) as a fixed classification factor. Geometric least squares means were used to calculate the ratios of primary PK parameters for each hepatic impairment group to those in the control group, along with 90% confidence intervals (CIs).
Additionally, the impact of age and BMI on the effect of hepatic impairment were evaluated using an ANOVA model similar as the ANOVA model described above, but with the interaction between each factor and the hepatic impairment group included as an additional factor.
The relationship between log-transformed PK parameters (Cmax and AUCinf) and continuous parameters (albumin, total bilirubin, and prothrombin time) used for the Child-Pugh score was explored by a linear regression approach. […]

[1] = Mild hepatic impairment, single oral dose 20 mg E4 monohydrate
[2] = Moderate hepatic impairment, single oral dose 20 mg E4 monohydrate
[3] = Moderate vs. Normal, one-way ANOVA
[4] = Normal hepatic function, single oral dose 20 mg E4 monohydrate
[5] = Severe hepatic impairment, single oral dose 20 mg E4 monohydrate
[6] = Severe vs. Normal, one-way ANOVA

SMILES: C[C@]12CC[C@@H]3c4ccc(O)cc4CC[C@H]3[C@@H]1[C@@H](O)[C@@H](O)[C@@H]2O [E4, 1,3,5 (10)-estratrien-3,15alpha, 16alpha, 17beta-tetrol]
- AUC0-24 h, GM [1]: 69.76 ng·h/mL
- CL/F, GM [1]: 171.23 L/h
- CL/F, Mean [1]: 177.13 L/h
- CL/F, Median [1]: 188.75 L/h
- Cmax, Mean [1]: 38.363 ng/mL
- λz, GM [1]: 0.0300 h⁻¹
- λz, Mean [1]: 0.0373 h⁻¹
- λz, Median [1]: 0.0428 h⁻¹
- AUCinf, Geometric Mean Ratio (Test/Reference) Estimate (Mild vs. Normal, one-way ANOVA): 1.120
- Cmax, Geometric Mean Ratio (Test/Reference) Estimate (Mild vs. Normal, one-way ANOVA): 1.661
- AUC0-24 h, GM [2]: 88.75 ng·h/mL
- CL/F, GM [2]: 185.80 L/h
- CL/F, Mean [2]: 214.77 L/h
- CL/F, Median [2]: 175.13 L/h
- Cmax, Mean [2]: 52.410 ng/mL
- λz, GM [2]: 0.0500 h⁻¹
- λz, Mean [2]: 0.0520 h⁻¹
- λz, Median [2]: 0.0493 h⁻¹
- AUCinf, Geometric Mean Ratio (Test/Reference) Estimate [3]: 1.032
- Cmax, Geometric Mean Ratio (Test/Reference) Estimate [3]: 1.896
- AUC0-24 h, GM [4]: 60.41 ng·h/mL
- CL/F, GM [4]: 191.77 L/h
- CL/F, Mean [4]: 200.09 L/h
- CL/F, Median [4]: 177.60 L/h
- Cmax, Mean [4]: 23.878 ng/mL
- λz, GM [4]: 0.0300 h⁻¹
- λz, Mean [4]: 0.0329 h⁻¹
- λz, Median [4]: 0.0307 h⁻¹
- AUC0-24 h, GM [5]: 179.05 ng·h/mL
- CL/F, GM [5]: 101.25 L/h
- CL/F, Mean [5]: 104.83 L/h
- CL/F, Median [5]: 111.40 L/h
- Cmax, Mean [5]: 117.025 ng/mL
- λz, GM [5]: 0.0800 h⁻¹
- λz, Mean [5]: 0.0905 h⁻¹
- λz, Median [5]: 0.1108 h⁻¹
- AUCinf, Geometric Mean Ratio (Test/Reference) Estimate [6]: 1.894
- Cmax, Geometric Mean Ratio (Test/Reference) Estimate [6]: 5.359
- plasma levels at 24 h after administration (comparison among hepatic function groups): in the same range among the different hepatic function groups
- Tmax (oral, across all hepatic function groups, read-out: Tmax, range): 0.23 to 1.92 h
- Tmax (oral, all hepatic function groups, read-out: Median Tmax, range over the hepatic function groups): 0.25 to 0.5 h
- AUC(0-inf) (po, Mild (Test), one-way ANOVA, single oral dose 20 mg, read-out: AUCinf, Geometric LS Mean): 117 ng·h/mL
- Cmax (po, Mild (Test), one-way ANOVA, single oral dose 20 mg, read-out: Cmax, Geometric LS Mean): 34.5 ng/mL
- AUC(0-t) (po, Mild hepatic impairment, single oral dose 20 mg E4 monohydrate, read-out: AUC0-24 h, GM): 69.8 ng·h/mL
- AUC(0-t) (po, Mild hepatic impairment, single oral dose 20 mg E4 monohydrate, read-out: AUC0-24 h, Mean): 72.9 ng·h/mL
- AUC(0-t) (po, Mild hepatic impairment, single oral dose 20 mg E4 monohydrate, read-out: AUC0-24 h, Median): 66.3 ng·h/mL
- AUC(0-inf) (po, Mild hepatic impairment, single oral dose 20 mg E4 monohydrate, read-out: AUCinf, GM): 117 ng·h/mL
- AUC(0-inf) (po, Mild hepatic impairment, single oral dose 20 mg E4 monohydrate, read-out: AUCinf, Mean): 122 ng·h/mL
- AUC(0-inf) (po, Mild hepatic impairment, single oral dose 20 mg E4 monohydrate, read-out: AUCinf, Median): 106 ng·h/mL
- AUC(0-t) (po, Mild hepatic impairment, single oral dose 20 mg E4 monohydrate, read-out: AUClast, GM): 116 ng·h/mL
- AUC(0-t) (po, Mild hepatic impairment, single oral dose 20 mg E4 monohydrate, read-out: AUClast, Mean): 121 ng·h/mL
- AUC(0-t) (po, Mild hepatic impairment, single oral dose 20 mg E4 monohydrate, read-out: AUClast, Median): 105 ng·h/mL
- Cmax (po, Mild hepatic impairment, single oral dose 20 mg E4 monohydrate, read-out: Cmax, GM): 34.5 ng/mL
- Cmax (po, Mild hepatic impairment, single oral dose 20 mg E4 monohydrate, read-out: Cmax, Mean): ~38 ng/mL
- Cmax (po, Mild hepatic impairment, single oral dose 20 mg E4 monohydrate, read-out: Cmax, Median): 34.9 ng/mL
- half-life (po, Mild hepatic impairment, single oral dose 20 mg E4 monohydrate, read-out: T1/2, GM (converted)): 20.1 h
- half-life (po, Mild hepatic impairment, single oral dose 20 mg E4 monohydrate, read-out: T1/2, Mean (converted)): 22.1 h
- half-life (po, Mild hepatic impairment, single oral dose 20 mg E4 monohydrate, read-out: T1/2, Median (converted)): 16.2 h
- Tmax (po, Mild hepatic impairment, single oral dose 20 mg E4 monohydrate, read-out: Tmax, Median): 0.375 h
- Vd/F (po, Mild hepatic impairment, single oral dose 20 mg E4 monohydrate, read-out: Vz/F, GM): 4960 L
- Vd/F (po, Mild hepatic impairment, single oral dose 20 mg E4 monohydrate, read-out: Vz/F, Mean): 5830 L
- Vd/F (po, Mild hepatic impairment, single oral dose 20 mg E4 monohydrate, read-out: Vz/F, Median): 4800 L
- AUC(0-inf) (po, Moderate (Test), one-way ANOVA, single oral dose 20 mg, read-out: AUCinf, Geometric LS Mean): 108 ng·h/mL
- Cmax (po, Moderate (Test), one-way ANOVA, single oral dose 20 mg, read-out: Cmax, Geometric LS Mean): 39.4 ng/mL
- AUC(0-t) (po, Moderate hepatic impairment, single oral dose 20 mg E4 monohydrate, read-out: AUC0-24 h, GM): 88.8 ng·h/mL
- AUC(0-t) (po, Moderate hepatic impairment, single oral dose 20 mg E4 monohydrate, read-out: AUC0-24 h, Mean): 103 ng·h/mL
- AUC(0-t) (po, Moderate hepatic impairment, single oral dose 20 mg E4 monohydrate, read-out: AUC0-24 h, Median): 92.6 ng·h/mL
- AUC(0-inf) (po, Moderate hepatic impairment, single oral dose 20 mg E4 monohydrate, read-out: AUCinf, GM): 108 ng·h/mL
- AUC(0-inf) (po, Moderate hepatic impairment, single oral dose 20 mg E4 monohydrate, read-out: AUCinf, Mean): 123 ng·h/mL
- AUC(0-inf) (po, Moderate hepatic impairment, single oral dose 20 mg E4 monohydrate, read-out: AUCinf, Median): 115 ng·h/mL
- AUC(0-t) (po, Moderate hepatic impairment, single oral dose 20 mg E4 monohydrate, read-out: AUClast, GM): 107 ng·h/mL
